Key:
[1] = refractive index (Na D-line) (dimensionless); xn = mol fraction of the nth substance listed; details: 100.5 kPa, Liquid, Standard Abbe refractometry
[2] = xn = mol fraction of the nth substance listed

CCCC(=O)OCCC(C)C [3-methylbutyl butanoate] + CCO
Details	refractive index, 288.15 K	refractive index, 298.15 K	refractive index, 308.15 K	refractive index, 318.15 K	surface tension liquid-gas, 288.15 K [mN/m]	surface tension liquid-gas, 298.15 K [mN/m]	surface tension liquid-gas, 308.15 K [mN/m]	surface tension liquid-gas, 318.15 K [mN/m]
[1], x1 = 0.05	1.3703	1.36624	1.36195	1.3578	–	–	–	–
[1], x1 = 0.1	1.37602	1.37182	1.36747	1.36327	–	–	–	–
[1], x1 = 0.15	1.3808	1.37656	1.37218	1.36792	–	–	–	–
[1], x1 = 0.2	1.38488	1.38059	1.3762	1.3719	–	–	–	–
[1], x1 = 0.25	1.38839	1.38406	1.37967	1.37533	–	–	–	–
[1], x1 = 0.3	1.39145	1.38709	1.38268	1.37832	–	–	–	–
[1], x1 = 0.35	1.39415	1.38977	1.38535	1.38096	–	–	–	–
[1], x1 = 0.4	1.39656	1.39216	1.38773	1.38332	–	–	–	–
[1], x1 = 0.45	1.39871	1.39431	1.38987	1.38544	–	–	–	–
[1], x1 = 0.5	1.40065	1.39624	1.3918	1.38736	–	–	–	–
[1], x1 = 0.55	1.4024	1.39798	1.39354	1.3891	–	–	–	–
[1], x1 = 0.6	1.40399	1.39956	1.39513	1.39067	–	–	–	–
[1], x1 = 0.65	1.40543	1.401	1.39656	1.3921	–	–	–	–
[1], x1 = 0.7	1.40673	1.4023	1.39786	1.3934	–	–	–	–
[1], x1 = 0.75	1.40793	1.40349	1.39905	1.39459	–	–	–	–
[1], x1 = 0.8	1.40902	1.40458	1.40015	1.39569	–	–	–	–
[1], x1 = 0.85	1.41003	1.40559	1.40116	1.3967	–	–	–	–
[1], x1 = 0.9	1.41096	1.40652	1.4021	1.39763	–	–	–	–
[1], x1 = 0.95	1.41181	1.40737	1.40296	1.39849	–	–	–	–
[1], x1 = 1	1.41259	1.40815	1.40374	1.39927	–	–	–	–
[2], x1 = 0.05	–	–	–	–	23.3	22.6	21.8	20.9
[2], x1 = 0.1	–	–	–	–	23.6	22.8	22	21.1
[2], x1 = 0.15	–	–	–	–	23.8	23	22.2	21.3
[2], x1 = 0.2	–	–	–	–	24	23.1	22.4	21.5
[2], x1 = 0.25	–	–	–	–	24.1	23.3	22.5	21.6
[2], x1 = 0.3	–	–	–	–	24.3	23.4	22.6	21.7
[2], x1 = 0.35	–	–	–	–	24.4	23.5	22.7	21.8
[2], x1 = 0.4	–	–	–	–	24.5	23.6	22.8	21.9
[2], x1 = 0.45	–	–	–	–	24.6	23.7	22.9	22
[2], x1 = 0.5	–	–	–	–	24.7	23.8	23	22.1
[2], x1 = 0.55	–	–	–	–	24.8	23.9	23.1	22.2
[2], x1 = 0.6	–	–	–	–	24.9	23.9	23.2	22.3
[2], x1 = 0.65	–	–	–	–	25	24	23.3	22.4
[2], x1 = 0.7	–	–	–	–	25.1	24.1	23.4	22.5
[2], x1 = 0.75	–	–	–	–	25.2	24.2	23.5	22.6
[2], x1 = 0.8	–	–	–	–	25.3	24.3	23.6	22.7
[2], x1 = 0.85	–	–	–	–	25.4	24.4	23.7	22.8
[2], x1 = 0.9	–	–	–	–	25.5	24.5	23.8	22.9
[2], x1 = 0.95	–	–	–	–	25.6	24.6	23.9	23
[2], x1 = 1	–	–	–	–	25.7	24.7	24	23.1

— the NIST ThermoML archive (doi:10.1021/je0601208)
